The record followed here is article PMC12278645, “Design, synthesis, and antitumor activity of novel thioheterocyclic nucleoside derivatives by suppressing the c-MYC pathway” (Acta Pharmaceutica Sinica. B, 2025).

In test [1] the test system is HeLa cells. Description: CCK-8 anti-proliferation assay, HeLa. It counts as cell-based, human. How it is done: (§1) Tumor cell anti-proliferation activities were determined by cell counting kit-8 (CCK-8) assay.
(§2) MCF-7, A375, and HeLa cells were cultured in DMEM, HCT116 cells were cultured in McCoy's 5A medium, and DU145 and CT26 were cultured in RPMI 1640 with 10% FBS, 1% penicillin-streptomycin solution (10,000 U/mL penicillin and 10,000 μg/mL streptomycin) at 37 °C under 5% CO2. The cells were seeded in 96-well plates (4 × 10^3 cells/well) overnight and then treated with various concentrations (1–50 μmol/L) of the compound. After 48 h, the cell viability was measured by CCK-8 assay. The absorbance of each well was measured using a microplate reader (Multiskan FC, Thermo Fisher Scientific, Massachusetts, USA) at 450 nm wavelength. Assays were performed in triplicate. Compound concentrations that inhibited cell growth by 50% (IC50) were calculated from the dose–response curves of each cell line. Data are mean ± SD values from three independent experiments.

The subject of test [2] is HCT116 cells. Description: CCK-8 anti-proliferation assay, HCT116. It counts as cell-based, human. How it is done:
as §1, §2

Where [3] appears, read: Homo sapiens, HeLa, 48 h, CCK-8, 48 h, mean ± SD, three independent experiments.
The mark [4] stands for this setting: Homo sapiens, HCT-116, 48 h, CCK-8, 48 h, mean ± SD, three independent experiments.
Where [5] appears, read: CCK-8, 48 h, mean ± SD, three independent experiments.

Turning to `CCOC(=O)[C@]1(n2cnc3c(SCC)ncnc32)CSC[C@H]1O` (relative stereo) [22a], the IC50 in test [1] (setting [3]) turned out to be 5.46 ± 1.02 µM; in test [2] (setting [4]), 7.56 ± 1.09 µM.

`CCOC(=O)[C@@]1(n2cnc3c(N4CCCCC4)nc(F)nc32)CSC[C@@H]1O` [33 ab]: the IC50 in test [1] (setting [3]) was found to be 10.1 ± 1.02 µM; in test [2] (setting [4]) it was 0.21 ± 0.13 µM.

For the compound `CCOC(=O)C1(n2cnc3c(N4CCOCC4)ncnc32)CSCC1O` (single isomer, unassigned) [9a], the IC50 in test [1] (setting [5]) was 10.8 ± 1.03 µM; in test [2] (setting [5]) it was greater than 50 µM.

Turning to `CCOC(=O)C1(n2cnc3c(OC)ncnc32)CSCC1O` (stereo not drawn) [7a], the IC50 in test [1] (setting [5]) and in test [2] (setting [5]) was greater than 50 µM in each case.

As for `CCOC(=O)C1(n2cnc3c(N4CCCCCC4)ncnc32)CSCC1O` (single isomer, unassigned) [19a], the IC50 was determined as 22.8 ± 1.22 µM in test [1] (setting [5]) and 1.19 ± 0.09 µM in test [2] (setting [5]).

In the case of `CCCSc1nc(N)nc2c1ncn2C1(C(=O)OCC)CSCC1O` (single isomer, unassigned) [35a], the IC50 in test [1] (setting [5]) is 9.44 ± 1.27 µM; in test [2] (setting [5]) it was 0.73 ± 0.11 µM.

Take `CCOC(=O)C1(n2cnc3c(N4CCCC4)ncnc32)CSCC1O` (single isomer, unassigned) [20a]: the IC50 came out at 11.4 ± 1.42 µM in test [1] (setting [5]) and 39.1 ± 1.35 µM in test [2] (setting [5]).

On to `CCOC(=O)C1(n2cnc3c(N4CCC(Cc5ccccc5F)CC4)ncnc32)CSCC1O` (single isomer, unassigned) [17b], for which the results for the IC50 in test [1] (setting [5]) and in test [2] (setting [5]) were 17 ± 1.12 µM and 4.49 ± 1.13 µM, respectively.

As for `CCOC(=O)C1(n2cnc3c(N4CCC(Cl)CC4)ncnc32)CSCC1O` (single isomer, unassigned) [14a], the IC50 in test [1] (setting [5]) turned out to be 12.1 ± 1.32 µM; in test [2] (setting [5]), 15 ± 2.16 µM.

With `CCOC(=O)C1(n2cnc3c(N4CCC(F)CC4)ncnc32)CSCC1O` (single isomer, unassigned) [12b], the IC50 in test [1] (setting [5]) came out at 40.9 ± 3.08 µM; in test [2] (setting [5]), 3.92 ± 0.87 µM.

For the compound `C#CCSc1ncnc2c1ncn2[C@@]1(C(=O)OCC)CSC[C@@H]1O` (relative stereo) [24b], the IC50 in test [1] (setting [3]) worked out at 14.9 ± 2.01 µM; in test [2] (setting [4]) it was 1.66 ± 0.13 µM.

Turning to `CCOC(=O)C1(n2cnc3c(N4CCOCC4)ncnc32)CSCC1O` (single isomer, unassigned) [9b], the IC50 in test [1] (setting [5]) worked out at 10.2 ± 1.05 µM; in test [2] (setting [5]), 17.1 ± 1.12 µM.

In the case of `CCOC(=O)C1(n2cnc3c(N4CCC(N5CCOCC5)CC4)ncnc32)CSCC1O` (single isomer, unassigned) [15a], the concentration for half-maximal inhibition (IC50) was determined as 13.7 ± 1.33 µM in test [1] (setting [5]) and 43.9 ± 2.11 µM in test [2] (setting [5]).

Regarding `CCOC(=O)[C@]1(n2cnc3c(SC)ncnc32)CSC[C@H]1O` (relative stereo) [21a], the IC50 in test [1] (setting [3]) was 31 ± 2.18 µM; in test [2] (setting [4]), 44.1 ± 1.36 µM.

As for `CCOC(=O)C1(n2cnc3c(Br)ncnc32)CSCC1O` (single isomer, unassigned) [3a], the IC50 in test [1] (setting [5]) is greater than 50 µM; in test [2] (setting [5]) it was 8.97 ± 1.03 µM.

Regarding `CCOC(=O)[C@]1(n2cnc3c(SCC)ncnc32)CSC[C@@H]1O` (relative stereo) [22b], the values for the IC50 in test [1] (setting [3]) and in test [2] (setting [4]) were 3.27 ± 0.82 µM and 2.42 ± 0.82 µM, respectively.

Turning to `CCOC(=O)C1(n2cnc3c(N4CCN(C)CC4)ncnc32)CSCC1O` (stereo not drawn) [18a], the IC50 in test [1] (setting [5]) and in test [2] (setting [5]) was greater than 50 µM each time. In addition, the “anticancer activity” value in test [2] (under 50 μmol/L, HeLa and HCT116) was “inactive”.

Take `CCOC(=O)[C@]1(n2cnc3c(SCCCCl)ncnc32)CSC[C@@H]1O` (relative stereo) [31b]: the IC50 in test [1] (setting [3]) and in test [2] (setting [4]) was greater than 50 µM throughout.

`CCOC(=O)[C@]1(n2cnc3c(N4CCCCC4)nc(F)nc32)CSC[C@H]1O` [33aa]: the IC50 in test [1] (setting [3]) was 6.17 ± 1.01 µM; in test [2] (setting [4]), 0.58 ± 0.17 µM.

Turning to `C#CCSc1ncnc2c1ncn2[C@@]1(C(=O)OCC)CSC[C@H]1O` (relative stereo) [24a], the figures for the IC50 in test [1] (setting [3]) and in test [2] (setting [4]) were 15.9 ± 2.12 µM and 1.81 ± 0.12 µM, respectively.

In the case of `CCOC(=O)C1(n2cnc3c(N4CCOCC4)nc(Cl)nc32)CSCC1O` (single isomer, unassigned) [42a], the IC50 was found to be 6.32 ± 1.02 µM in test [1] (Table S3, CCK-8, mean ± SD) and 24.2 ± 1.32 µM in test [2] (Table S3, CCK-8, mean ± SD).

For the compound `CCOC(=O)[C@]1(n2cnc3c(Sc4ccc(C(C)(C)C)cc4)ncnc32)CSC[C@@H]1O` (relative stereo) [29b], the IC50 in test [1] (setting [3]) worked out at 15.1 ± 2.08 µM; in test [2] (setting [4]) it was 6.78 ± 1.22 µM.
